Laboratory results published in patent publication US20200360331A1, “COMPOSITIONS COMPRISING 15-HEPE AND/OR 15-HETrE AND METHODS OF TREATING OR PREVENTING CARDIOMETABOLIC DISEASE, METABOLIC SYNDROME, AND/OR RELATED DISEASES” (Afimmune Limited, priority 2019, published 2020).
“Also recorded” adds a separate entry of the source.

Legend:
Alpha-SMA = assay: UUO study: quantitative RT-PCR of kidney, Alpha-SMA; format: in vivo, C57BL/6 mice; conditions: UUO mice kidney
Description: Quantitative RT-PCR: Total ribonucleic acid (RNA) was extracted from kidney samples using RNAiso (Takara Bio, Japan) according to the manufacturer's instructions. One μg of RNA was reverse-transcribed using a reaction mixture containing […] (mM) of magnesium chloride (MgCl2) (F. Hoffmann-La Roche, Switzerland), 40 U RNase inhibitor (Toyobo, Japan), 0.5 mM dNTP (Promega, USA), 6.28 μM random hexamer (Promega), 5× first strand buffer (Promega), 10 mM dithiothreitol (Invitrogen, USA) and 200 U MMLV-RT (Invitrogen) in a final volume of 20 μL. The reaction was carried out for 1 hour at 37° C., followed by 5 minutes at 99° C. Real-time PCR was performed using real-time PCR DICE and TB Green™ Premix Ex Taq™ II (Takara Bio). To calculate the relative […] (mRNA) expression level, the expression of each gene (e.g., α-SMA, TIMP-1, TGF-β and Collagen Type 1) was normalized to that of reference gene 36B4 (gene symbol: Rplp0). Information regarding the PCR-primer sets and the plate layout are described in Tables 1 and 2.

[1] = test system: TβR-II (type II TGF-β receptor); assay: Sucrose density gradient analysis in Mv1Lu cells, TβR-II; format: cell-based, mink
Description: Sucrose gradient ultracentrifugation and confocal microscopy were used to identify 15-HEPE induced microdomain translocation of TGF-β receptors by sucrose. Sucrose density gradient analysis of TGF-β receptors was conducted in the plasma membranes of Mv1Lu cells (mink lung epithelial cell) treated with 100 μM of 15-HEPE and an equal volume of DMSO (dimethyl sulfoxide) at 37° C. for 0, 1, 4, and 24 hours, and the cell lysates from these treated cells were subjected to sucrose density gradient ultracentrifugation. The sucrose gradient fractions were then analyzed by Western blot analysis using anti-TβR-I (type I TGF-β receptor), anti-TβR-II (type II TGF-β receptor), anti-TβR-III (type III TGF-β receptor, betaglycan), anti-EGFR (epidermal growth factor receptor), and anti-caveolin-1 antibodies. The lipid raft/caveolae, and non-lipid raft microdomain localization of TβR-I, TβR-II, TβR-III, EGFR and caveolin-1 in the plasma membrane of untreated cells or cells treated with 15-HEPE were assessed to determine the effects of 15-HEPE on the membrane microdomain localization of the TGF-β receptors.
A 15-HEPE sucrose density gradient analysis of TGF-β receptors was conducted in the plasma membranes of mink lung epithelial cell (Mv1 Lu) cells treated with 100 μM of 15-HEPE and an equal volume of dimethyl sulfoxide (DMSO) at 37° C. for 0, 1, 4, and 24 hours, and the cell lysates from these treated cells were subjected to sucrose density gradient ultracentrifugation. The sucrose gradient fractions were then analyzed by Western blot analysis using anti-TβR-I (type I TGF-β receptor—FIG. 18C), anti-TβR-II (type II TGF-β receptor—FIG. 18D), anti-TβR-III (type III TGF-β receptor, betaglycan—FIG. 18E), anti-EGFR (epidermal growth factor receptor—FIG. 18F), and anti-caveolin-1 antibodies (FIG. 18G). Fractions 4 to 5 contained lipid rafts/caveolae whereas fractions 7-10 were non-lipid raft fractions. […] Stars (★) indicate 15-HEPE increased abundance of TβR-I (24 hours) in the fraction in comparison with that of the control and shorter treatment durations (FIG. 18C). […] The triangles (▾) indicate translocation and decreased abundance of TβR-II in the fraction in comparison with control cells (FIG. 18D).

[2] = UUO study: body weight, kidney weight, general condition; format: in vivo; conditions: UUO mice
Description: UUO Surgery: On day 0 of the study, UUO surgery was performed on mice under pentobarbital sodium anesthesia. The mouse's hair was first shaved and then abdomen cut open to exteriorize the mouse's left ureter. The ureter was ligated 4-0 nylon sutures at two points. The mouse's peritoneum and skin were then closed with sutures, and the mouse transferred to a clean cage until recovered from the anesthesia. Sham operated mice had their left ureter exposed but not ligated. […]
Animals: Seven-week-old female C57BL/6 mice (i.e., animals) were obtained from Japan SLC, Inc. (Japan) and were housed and fed with a normal diet (CE-2; CLEA Japan, Japan) under controlled conditions. The animals were maintained in a specific-pathogen free (SPF) facility under controlled conditions of temperature (e.g., 23±2° C.), humidity (e.g., 45±10%), lighting (e.g., 12-hour artificial light and dark cycles; light from 8:00 to 20:00) and air exchange. A high pressure was maintained in the experimental room to prevent contamination of the facility. The animals were housed in TPX cages (CLEA Japan) with a maximum of 4 mice per cage. Sterilized Paper-Clean (Japan SLC) was used for bedding and replaced once a week. Sterilized solid normal diet was provided ad libitum, being placed in a metal lid on the top of the cage. Pure water was also provided ad libitum from a water bottle equipped with a rubber stopper and a sipper tube. Water bottles were replaced once a week, cleaned, and sterilized in an autoclave and reused. Mice were identified by ear punch and each cage was labeled with a specific identification code.
Animal Monitoring and Sacrifice: The viability, clinical signs and behavior for the mice were monitored daily. Individual body weight was measured daily before treatment during the treatment period. […] The animals were sacrificed by exsanguination through direct cardiac puncture under isoflurane anesthesia (Pfizer Inc.) at Day 14.

BDL-operated mice = assay: BDL study: Sirius red staining of liver sections, fibrosis area; format: in vivo, C57BL/6J mice
Description: BDL Surgery: On Day 0 of the study, BDL surgery was performed under pentobarbital (Kyoritsu Seiyaku, Japan) anesthesia. The mouse's hair was first shaved, the abdominal cavity cut open, and the common bile duct was ligated twice with 7-0 surgical silk. The mouse's peritoneum and the skin were closed with sutures, and the mice were transferred to a clean cage (e.g., resting cage) until recovered from anesthesia. Sham operated mice had their common bile duct exposed but not ligated.
[…]: To visualize collagen deposition, Bouin's fixed liver sections were stained using picro-Sirius red solution (Waldeck, Germany). For quantitative analysis of fibrosis area, bright field images of Sirius red-stained sections were captured using a digital camera (DFC295, Leica, Germany) at 100-fold magnification, and the positive areas in 5 fields/section were measured using ImageJ software (National Institute of Health, USA).

[3] = 50 mg/kg PO QD Day 0-13, Day 14
[4] = 500 mg/kg PO QD Day 0-13, Day 14

Structure (SMILES): CC/C=C\CC(O)/C=C/C=C\C/C=C\C/C=C\CCCC(=O)O (stereo not drawn) [DS102, 15-hydroxy-eicosa-5Z,8Z,11Z,13E,17Z-pentaenoic acid]
- Alpha-SMA gene expression (Alpha-SMA; relative mRNA normalized to 36B4, 50 mg/kg PO QD Day 0-13): 3.74 ± 0.81
- Alpha-SMA gene expression (Alpha-SMA; relative mRNA normalized to 36B4, 500 mg/kg PO QD Day 0-13): 5.54 ± 1.54
- TβR-II translocation ([1]; Mv1Lu cells, 100 μM, 1 to 4 hours): induced TβR-II translocation
- TβR-II degradation ([1]; Mv1Lu cells, 100 μM, 24 hours): induce degradation
- translocation and degradation of type II TGF-β receptors ([1]; summary, free acid or ethyl ester form): induced translocation and degradation of type II TGF-β receptors
- Left Kidney Weight [2, 3]: 469 ± 60 mg
- Right Kidney Weight [2, 3]: 133 ± 10 mg
- Left Kidney Weight [2, 4]: 487 ± 108 mg
- Right Kidney Weight [2, 4]: 136 ± 6 mg
- fibrosis area compared with the Vehicle group (BDL-operated mice; BDL mice liver, 500 mg/kg): tended to decrease; also recorded: trend approaching significance
- fibrosis area compared with the Vehicle group (BDL-operated mice; BDL mice, liver, 50 mg/kg): no significant difference
- Sirius red-positive area (BDL-operated mice; BDL mice, liver, 50 mg/kg PO QD Day 0-13, Day 14): 1.70 ± 0.63%
- fibrosis area compared with the Vehicle group (BDL-operated mice; BDL mice, liver, 250 mg/kg): significant decrease
- Sirius red-positive area (BDL-operated mice; BDL mice, liver, 250 mg/kg PO QD Day 0-13, Day 14): 1.06 ± 0.48%
- Sirius red-positive area (BDL-operated mice; BDL mice, liver, 500 mg/kg PO QD Day 0-13, Day 14): 1.42 ± 0.60%
